The values that follow come from patent US9422297B2, “Tricyclic compounds having cytostatic and/or cytotoxic activity and methods of use thereof” (Duquesne University of the Holy Ghost, priority 2007, dated 2016).

One series deals with EGFR kinase (Homo sapiens (Human), UniProt P00533). In words: EGFR kinase inhibition. Format: biochemical.
A further series addresses PDGFR-β kinase (Homo sapiens (Human), UniProt P09619). The series can be described thus: PDGFR-β kinase inhibition. Format: biochemical.
Another series can be described thus: A431 cytotoxicity assay. Format: cell-based. The following applies: human, A431 cells.
For a further series, the target named is Flk-1 kinase (Homo sapiens (Human), UniProt P35968). In words: Flk-1 kinase inhibition. Format: biochemical. The note with it: Table 3.
In another series the target is VEGFR-2 kinase (Homo sapiens (Human), UniProt P35968). The series can be described thus: VEGFR-2 kinase inhibition. It is filed as biochemical. The note with it: Table 1.
Series [1] addresses Thymidylate synthase (Homo sapiens (Human), UniProt P04818). The series can be described thus: Thymidylate synthase inhibition, human. It is filed as biochemical. The following applies: Human TS.
Series [2] has as its target Thymidylate synthase (Escherichia coli (strain K12), UniProt P0A884). In words: Thymidylate synthase inhibition, E. coli. It is filed as biochemical.
Series [3] has as its system COLO-205 metastatic human colon cancer cells. In words: COLO-205 tumors implanted in athymic mice. It is filed as in vivo.
The target of series [4] is Thymidylate synthase (Toxoplasma gondii, UniProt Q07422). The series can be described thus: Thymidylate synthase inhibition, Toxo. Format: biochemical.
A further series relates to CAM angiogenesis. In words: CAM assay, inhibition of angiogenesis. It is filed as in vivo. The following applies: Table 3.
The mark [5] stands for this setting: Table 3, read-out: PDGFR-β kinase.
[6] abbreviates: athymic mice, 25 mg/kg 3× weekly.

Where two headings read alike, the source gives them in different places.

PDGFR-β kinase, sequence (P09619 33-1106): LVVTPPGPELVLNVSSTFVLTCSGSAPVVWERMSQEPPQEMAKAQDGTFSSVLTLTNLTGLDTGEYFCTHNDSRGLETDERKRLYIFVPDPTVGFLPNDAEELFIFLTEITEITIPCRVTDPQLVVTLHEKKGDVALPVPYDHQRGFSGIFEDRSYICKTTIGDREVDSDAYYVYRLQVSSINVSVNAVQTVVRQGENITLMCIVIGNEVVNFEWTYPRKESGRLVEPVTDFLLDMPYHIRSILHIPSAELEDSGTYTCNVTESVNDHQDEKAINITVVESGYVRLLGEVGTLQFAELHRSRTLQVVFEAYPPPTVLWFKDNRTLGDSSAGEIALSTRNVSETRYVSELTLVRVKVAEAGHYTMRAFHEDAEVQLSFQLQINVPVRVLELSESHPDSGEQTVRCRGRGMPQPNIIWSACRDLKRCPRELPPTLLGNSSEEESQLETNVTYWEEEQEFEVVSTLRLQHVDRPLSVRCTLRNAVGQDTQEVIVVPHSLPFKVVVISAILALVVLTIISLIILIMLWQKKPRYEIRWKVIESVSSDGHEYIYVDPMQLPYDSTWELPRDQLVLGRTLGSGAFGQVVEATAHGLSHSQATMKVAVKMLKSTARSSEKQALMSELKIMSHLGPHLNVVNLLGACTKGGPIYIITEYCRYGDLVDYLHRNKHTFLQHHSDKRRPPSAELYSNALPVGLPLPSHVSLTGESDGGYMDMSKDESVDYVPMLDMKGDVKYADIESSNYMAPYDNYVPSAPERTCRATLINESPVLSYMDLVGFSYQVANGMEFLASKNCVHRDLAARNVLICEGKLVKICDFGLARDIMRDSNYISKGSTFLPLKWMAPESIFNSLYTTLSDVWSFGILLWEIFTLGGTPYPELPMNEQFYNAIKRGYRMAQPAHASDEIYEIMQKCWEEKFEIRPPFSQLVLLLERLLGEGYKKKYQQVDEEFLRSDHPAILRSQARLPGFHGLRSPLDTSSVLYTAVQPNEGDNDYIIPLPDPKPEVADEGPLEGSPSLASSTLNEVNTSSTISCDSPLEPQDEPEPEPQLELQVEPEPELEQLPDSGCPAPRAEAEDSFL
EGFR kinase, sequence (P00533 25-1210): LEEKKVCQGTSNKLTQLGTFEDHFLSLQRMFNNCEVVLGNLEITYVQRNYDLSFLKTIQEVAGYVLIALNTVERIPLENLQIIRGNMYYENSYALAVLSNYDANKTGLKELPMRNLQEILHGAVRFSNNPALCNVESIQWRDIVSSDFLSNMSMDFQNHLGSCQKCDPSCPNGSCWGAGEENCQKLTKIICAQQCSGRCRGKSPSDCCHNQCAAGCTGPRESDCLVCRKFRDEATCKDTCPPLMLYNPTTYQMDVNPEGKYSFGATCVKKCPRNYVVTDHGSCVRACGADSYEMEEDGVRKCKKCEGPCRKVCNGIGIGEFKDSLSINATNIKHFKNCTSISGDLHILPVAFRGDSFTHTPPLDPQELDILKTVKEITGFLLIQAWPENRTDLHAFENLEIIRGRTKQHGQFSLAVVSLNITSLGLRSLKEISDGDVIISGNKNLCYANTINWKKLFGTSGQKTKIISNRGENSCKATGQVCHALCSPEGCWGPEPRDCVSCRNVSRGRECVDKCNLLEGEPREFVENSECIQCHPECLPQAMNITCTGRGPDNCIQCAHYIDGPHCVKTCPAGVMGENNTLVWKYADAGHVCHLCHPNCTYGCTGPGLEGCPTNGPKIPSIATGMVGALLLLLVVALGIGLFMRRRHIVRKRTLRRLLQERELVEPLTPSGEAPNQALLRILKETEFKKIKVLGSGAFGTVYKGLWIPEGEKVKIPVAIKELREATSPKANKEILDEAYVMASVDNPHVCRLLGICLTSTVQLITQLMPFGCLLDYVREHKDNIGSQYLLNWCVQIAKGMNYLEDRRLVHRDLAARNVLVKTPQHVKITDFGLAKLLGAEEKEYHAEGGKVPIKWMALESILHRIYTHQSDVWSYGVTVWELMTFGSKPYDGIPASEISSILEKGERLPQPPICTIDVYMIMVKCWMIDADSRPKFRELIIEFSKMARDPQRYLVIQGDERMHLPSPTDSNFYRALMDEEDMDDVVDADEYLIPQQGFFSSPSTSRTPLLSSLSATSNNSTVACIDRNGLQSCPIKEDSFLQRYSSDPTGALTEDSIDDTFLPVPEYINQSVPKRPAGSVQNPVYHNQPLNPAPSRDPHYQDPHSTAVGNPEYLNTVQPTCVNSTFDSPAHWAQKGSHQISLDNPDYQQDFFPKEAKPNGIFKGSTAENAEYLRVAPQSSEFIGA
Thymidylate synthase (Homo sapiens (Human), UniProt P04818), sequence (P04818 whole entry): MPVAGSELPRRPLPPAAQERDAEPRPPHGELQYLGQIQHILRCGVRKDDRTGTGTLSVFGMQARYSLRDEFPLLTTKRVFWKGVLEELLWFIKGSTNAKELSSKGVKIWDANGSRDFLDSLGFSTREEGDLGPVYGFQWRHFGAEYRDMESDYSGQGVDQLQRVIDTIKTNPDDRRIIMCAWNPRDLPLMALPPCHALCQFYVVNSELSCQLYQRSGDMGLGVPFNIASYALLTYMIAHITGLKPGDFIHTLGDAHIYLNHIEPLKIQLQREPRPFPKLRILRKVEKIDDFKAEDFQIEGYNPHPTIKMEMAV
Flk-1 kinase, sequence (P35968 20-1356): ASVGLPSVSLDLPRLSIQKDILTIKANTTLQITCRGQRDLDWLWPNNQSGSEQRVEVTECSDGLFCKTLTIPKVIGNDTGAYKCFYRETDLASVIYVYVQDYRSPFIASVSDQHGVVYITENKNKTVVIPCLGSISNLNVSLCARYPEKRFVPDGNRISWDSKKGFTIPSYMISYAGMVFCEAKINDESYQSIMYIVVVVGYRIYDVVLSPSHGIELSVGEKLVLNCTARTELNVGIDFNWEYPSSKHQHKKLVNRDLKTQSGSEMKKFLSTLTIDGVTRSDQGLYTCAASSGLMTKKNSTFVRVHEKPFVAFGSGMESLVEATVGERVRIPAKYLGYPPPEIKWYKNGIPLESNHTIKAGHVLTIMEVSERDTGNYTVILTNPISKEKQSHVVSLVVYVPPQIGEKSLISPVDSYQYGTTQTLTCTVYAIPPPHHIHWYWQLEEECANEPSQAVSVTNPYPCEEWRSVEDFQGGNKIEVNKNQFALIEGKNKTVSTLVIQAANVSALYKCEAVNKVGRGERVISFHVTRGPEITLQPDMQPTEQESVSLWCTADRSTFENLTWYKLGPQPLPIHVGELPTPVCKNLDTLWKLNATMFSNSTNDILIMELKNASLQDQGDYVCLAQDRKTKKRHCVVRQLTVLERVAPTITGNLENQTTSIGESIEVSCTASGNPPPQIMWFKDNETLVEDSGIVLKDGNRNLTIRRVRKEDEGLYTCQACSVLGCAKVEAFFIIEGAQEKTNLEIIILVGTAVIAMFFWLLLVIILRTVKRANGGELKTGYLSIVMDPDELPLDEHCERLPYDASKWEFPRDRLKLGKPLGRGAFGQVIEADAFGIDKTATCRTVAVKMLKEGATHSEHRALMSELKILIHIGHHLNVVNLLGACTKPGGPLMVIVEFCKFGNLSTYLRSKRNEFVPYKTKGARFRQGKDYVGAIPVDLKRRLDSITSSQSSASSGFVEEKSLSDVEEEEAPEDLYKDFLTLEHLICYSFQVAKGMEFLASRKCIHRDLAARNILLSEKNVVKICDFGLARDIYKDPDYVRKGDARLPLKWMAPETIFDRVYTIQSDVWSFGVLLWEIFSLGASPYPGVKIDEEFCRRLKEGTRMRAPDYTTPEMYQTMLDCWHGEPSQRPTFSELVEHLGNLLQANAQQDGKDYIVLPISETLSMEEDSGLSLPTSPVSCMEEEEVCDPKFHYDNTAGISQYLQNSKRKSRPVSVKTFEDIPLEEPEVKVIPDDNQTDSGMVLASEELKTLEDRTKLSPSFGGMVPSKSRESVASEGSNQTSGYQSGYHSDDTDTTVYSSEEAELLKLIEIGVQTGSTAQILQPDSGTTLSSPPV
Thymidylate synthase (Escherichia coli (strain K12), UniProt P0A884), sequence (P0A884 whole entry, looked up): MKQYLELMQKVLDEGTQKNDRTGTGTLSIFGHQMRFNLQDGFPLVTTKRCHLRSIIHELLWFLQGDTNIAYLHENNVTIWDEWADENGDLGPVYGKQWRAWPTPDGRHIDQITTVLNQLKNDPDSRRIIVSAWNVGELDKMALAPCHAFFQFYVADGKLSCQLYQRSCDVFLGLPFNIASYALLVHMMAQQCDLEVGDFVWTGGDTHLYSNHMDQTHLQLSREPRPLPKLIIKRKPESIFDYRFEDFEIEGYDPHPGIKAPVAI
VEGFR-2 kinase, sequence (P35968 20-1356): as the sequence (P35968 20-1356) above

As for `CC(C)c1ccccc1Nc1nc(N)nc2c1-c1ccccc1C2` [AAG145-124], the IC50 at EGFR kinase (Table 3, read-out: EGFR kinase) was over 200 µM; on PDGFR-β kinase (setting [5]) it was 21.7 µM; in the series “A431 cytotoxicity assay” (Table 3), 126 µM; against Flk-1 kinase it was over 200 µM.

With `CC(C)c1ccc(Nc2nc(N)nc3c2-c2ccccc2C3)cc1` [AAG145-126], the IC50 at EGFR kinase (Table 3, read-out: EGFR kinase) turned out to be 42.6 µM; at PDGFR-β kinase (setting [5]), 7.8 µM; in “A431 cytotoxicity assay” (Table 3), 126 µM; on Flk-1 kinase, 11 µM.

Turning to `Nc1nc2c(c(Nc3cccc(Br)c3)n1)-c1ccccc1C2` [AAG145-131], the IC50 on EGFR kinase (Table 3, read-out: EGFR kinase) is 24.1 µM; at PDGFR-β kinase (setting [5]), 126 µM; in the series “A431 cytotoxicity assay” (Table 3), over 5000 µM; against Flk-1 kinase, over 200 µM.

Consider `Nc1nc2c(c(Nc3ccc(Cl)cc3F)n1)-c1ccccc1C2` [AAG145-135], for which the IC50 at EGFR kinase (Table 3, read-out: EGFR kinase) stood at 11.7 µM; in “A431 cytotoxicity assay” (Table 3), 9.7 µM; against Flk-1 kinase, 197 µM.

For `Nc1nc2c(c(Nc3cccc(Cl)c3)n1)-c1ccccc1C2` [AAG145-157], the IC50 was 19.6 µM on EGFR kinase (Table 3, read-out: EGFR kinase); over 500 µM at PDGFR-β kinase (setting [5]); 235 µM in the series “A431 cytotoxicity assay” (Table 3); 134 µM against Flk-1 kinase.

As to `Nc1nc2c(c(Nc3ccccc3)n1)-c1ccccc1C2` [AAG145-158], the IC50 is over 200 µM at EGFR kinase (Table 3, read-out: EGFR kinase); 43.1 µM on PDGFR-β kinase (setting [5]); 4.9 µM in “A431 cytotoxicity assay” (Table 3); 171 µM against Flk-1 kinase.

Take `COc1cccc(Nc2nc(N)nc3c2-c2ccccc2C3)c1` [AAG145-159]: the IC50 at EGFR kinase (Table 3, read-out: EGFR kinase) is over 200 µM; at PDGFR-β kinase (setting [5]) it was 75.5 µM; in the series “A431 cytotoxicity assay” (Table 3), 13.9 µM; against Flk-1 kinase, 43 µM.

Turning to `Nc1nc2c(c(Nc3cccc(F)c3)n1)-c1ccccc1C2` [AAG145-161], the IC50 was over 200 µM on EGFR kinase (Table 3, read-out: EGFR kinase); 7.1 µM on PDGFR-β kinase (setting [5]); 9.8 µM in “A431 cytotoxicity assay” (Table 3); 55.7 µM against Flk-1 kinase.

Consider `Nc1nc2c(c(Nc3ccc(F)c(Cl)c3)n1)-c1ccccc1C2` [AAG145-164], for which the IC50 was over 200 µM at EGFR kinase (Table 3, read-out: EGFR kinase); 6.4 µM at PDGFR-β kinase (setting [5]); 158 µM in “A431 cytotoxicity assay” (Table 3); 72.9 µM against Flk-1 kinase.

For `Nc1nc(N)c2c(n1)[nH]c1cccc(Sc3ccccc3)c12` [AAG-148-43, 5-(phenylthio)-9H-pyrimido[4,5-b]indole-2,4-diamine], the IC50 at EGFR kinase (Table 1, read-out: EGFR kinase inhibition) is 15.1 µM; against VEGFR-2 kinase it was 22.6 µM; at PDGFR-β kinase (Table 1, read-out: PDGFR-β kinase inhibition) it was 2.8 µM; in the series “A431 cytotoxicity assay” (Table 1), 49.2 µM; on Thymidylate synthase [1], 540 nM; on Thymidylate synthase [2] it was over 27 µM. The “metastasis to the liver of COLO-205 cells” value in series [3] (setting [6]) is “significantly reduced metastasis to the liver”. Also, the “vascularity of COLO-205 primary tumors” value in series [3] (setting [6]) is recorded as “reduced vascularity much better than DMBI”. Besides, the “primary tumor growth of COLO-205” value in series [3] (athymic mice, 25 mg/kg three times a week) is listed as “significantly reduced the growth”. Moreover, the “apparent toxicity (loss in weight of the animals)” value in [3] (mice, 25 mg/kg three times weekly) is reported as “no apparent toxicity”.

For `Cc1ccc(Sc2cccc3[nH]c4nc(N)nc(N)c4c23)cc1` [AAG-148-311, 5-[(4-methylphenyl)thio]-9H-pyrimido[4,5-b]indole-2,4-diamine], the IC50 was 390 nM against Thymidylate synthase [1] and 180 nM against Thymidylate synthase [4].

On to `Nc1nc2[nH]cc(CCc3ccc(C(=O)N[C@@H](CCC(=O)O)C(=O)O)cc3)c2c(=O)[nH]1` [Pemetrexed, reference compound], for which the IC50 turned out to be 29000 nM against Thymidylate synthase [1] and 15 µM on Thymidylate synthase [2] (E. coli TS, read-out: Thymidylate synthase inhibition E. coli).

In the case of `Cc1cc(C)c(/C=C2\C(=O)Nc3ccccc32)[nH]1` [SU5416, reference compound], the values for the IC50 in “A431 cytotoxicity assay” (Table 3) and with CAM angiogenesis were […] and 32 ± 5 nM, respectively.
